Data: patent US20240254129A1, “HETEROCYCLIC COMPOUNDS AND USES THEREOF” (Kumquat Biosciences Inc., priority 2021, published 2024)
Read-outs that look alike come from different tables or passages of the source.

Columns and labels:
wildtype Kras / hSOS1 = target: T1, wildtype Kras / hSOS1 (Homo sapiens, UniProt P01116); test: HTRF assay, wildtype Kras / SOS1 interaction; assay type: binding; details: read-out: IC50 against wildtype Kras
T1 construct: made in house; host or cells: E. coli BL21 (DE3)
T1 sequence (P01116 1-188 isoform P01116-2): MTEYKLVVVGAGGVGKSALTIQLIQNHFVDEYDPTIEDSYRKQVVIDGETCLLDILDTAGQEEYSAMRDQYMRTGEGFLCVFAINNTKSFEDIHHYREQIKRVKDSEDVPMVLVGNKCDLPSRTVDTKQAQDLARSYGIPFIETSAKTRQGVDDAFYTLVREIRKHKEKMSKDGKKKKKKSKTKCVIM
Excerpt: (§1) This assay can be also used to assess a selective inhibition of a mutant Ras protein relative to a wildtype, or relative to a different mutant Ras protein. For example, the equilibrium interaction of wildtype Kras or K-Ras mutant (e.g., wildtype or a mutant thereof including those mentioned in Example 6) with SOS1 (e.g., hSOS1) can be assessed as a proxy or an indication for a subject compound's ability to bind and inhibit Ras protein. HTRF assay detects from (i) a fluorescence resonance energy transfer (FRET) donor (e.g., antiGST-Europium) that is bound to GST-tagged K-Ras mutant to (ii) a FRET acceptor (e.g., anti-6His-XL665) bound to a His-tagged hSOS1.
(§2) The assay buffer can contain ˜5 mM HEPES pH 7.4, ˜150 mM NaCl, ˜ 1 mM DTT, 0.05% BSA and 0.0025% (v/v) Igepal. A Ras working solution is prepared in an assay buffer containing typically a suitable amount of the protein construct (e.g., GST-tagged K-Ras mutant) and the FRET donor (e.g., antiGST-Eu(K) from Cisbio, France). A SOS1 working solution is prepared in an assay buffer containing suitable amount of the protein construct (e.g., His-hSOS1) and the FRET acceptor (e.g., anti-6His-XL665 from Cisbio, France). A suitable amount of the protein construct will depend on the range of activity or range of IC50 values being detected or under investigation. For detecting IC50 within a range of 500 nM, the protein constructs of the same range of molarity can be utilized.
(§3) A fixed volume of DMSO with or without test compound is transferred into a 384-well plate. Ras working solution is added to all wells of the test plate. SOS1 working solution is added to all wells except for those that are subsequently filled the inhibitor control solution. Upon incubation for about 10 minutes or longer, the fluorescence is measured with a M1000Pro plate reader (Tecan) using HTRF detection (excitation 337 nm, emission 1: 620 nm, emission 2: 665 nm). Compounds are tested in duplicates at different concentrations (for example, 10 μM, 2.5 μM, 0.63 μM, 0.16 μM, 0.04 µM, 0.01 μM test compound). The ratiometric data (i.e., emission 2 divided by emission 1) is used to calculate IC50 values against Ras using GraphPad Prism (GraphPad software). Following this general procedure, samples were tested with or without a subject compound disclosed herein including compounds exemplified in Table 1 to assess their abilities to inhibit K-Ras signaling or their respective IC50 values against a given Ras protein (e.g., a given mutant K-Ras) of interest.

[1] = target: GST-tagged K-Ras mutant / His-tagged hSOS1 (Homo sapiens, UniProt P01116); test: HTRF assay, K-Ras mutant / SOS1 interaction; assay type: binding; details: read-out: IC50 against mutant Kras
Sequence of GST-tagged K-Ras mutant / His-tagged hSOS1 (P01116 whole entry G12D, form open): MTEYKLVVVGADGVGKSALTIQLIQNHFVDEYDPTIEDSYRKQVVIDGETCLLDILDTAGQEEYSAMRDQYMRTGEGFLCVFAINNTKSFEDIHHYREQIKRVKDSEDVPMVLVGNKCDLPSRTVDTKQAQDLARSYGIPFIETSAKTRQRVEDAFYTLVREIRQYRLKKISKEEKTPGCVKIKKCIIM
Excerpt: as §1, §2, §3

[2] = compound nos. 102-196, general methodology of example 5
[3] = compound nos. 201-213, general methodology of example 5

Compound: Nc1nc2c(-c3c(Cl)cc4c(N5CC6CNCC6C5)nc(OC[C@@]56CCCN5C[C@H](F)C6)nc4c3F)ccc(F)c2s1 (stereo partly drawn) [Compound 569, 4-(6-chloro-8-fluoro-2-(((2R,7aS)-2-fluorotetra-hydro-1H-pyrrolizin-7a(5H)-yl)methoxy)-4-(hexahydro-pyrrolo[3,4-c]pyrrol-2(1H)-yl)quinazolin-7-yl)-7-fluoro-benzo[d]thiazol-2-amine]
- IC50 (wildtype Kras / hSOS1; compound nos. 401-703): > 500 nM
- IC50 ([1]; compound nos. 401-703): < 500 nM

Compound: Nc1nc2c(-c3c(Cl)cc4c(N5CC6CCC(C5)N6)nc(OCC56CCCC5CCC6)nc4c3F)cccc2s1 (stereo not drawn) [Compound 571, 4-(4-(3,8-diazabicyclo-[3.2.1]octan-3-yl)-6-chloro-8-fluoro-2-((hexahydro-pentalen-3a(1H)-yl)meth-oxy)quinazolin-7-yl)benzo-[d]thiazol-2-amine]
- IC50 (wildtype Kras / hSOS1; compound nos. 401-703): > 500 nM
- IC50 ([1]; compound nos. 401-703): > 500 nM

Compound: CN1CCC[C@H]1COc1nc(N2CCC(O)C(F)CC2)c2cc(Cl)c(-c3cccc4sc(N)nc34)c(F)c2n1 (stereo partly drawn) [Compound 466, 1-(7-(2-aminobenzo[d]-thiazol-4-yl)-6-chloro-8-fluoro-2-(((S)-1-methylpyr-rolidin-2-yl)methoxy)quin-azolin-4-yl)-5-fluoroazepan-4-ol]
- IC50 (wildtype Kras / hSOS1; compound nos. 401-703): < 500 nM
- IC50 ([1]; compound nos. 401-703): < 500 nM

Compound: CN1CCC[C@H]1COc1nc(N2CCNCC(F)(F)C2)c2cc(Cl)c(-c3cccc4ccc(N)nc34)c(F)c2n1 [Compound 183, 8-(6-chloro-4-(6,6-difluoro-1,4-diazepan-1-yl)-8-fluoro-2-(((S)-1-methylpyrrolidin-2-yl)methoxy)quinazolin-7-yl)quinolin-2-amine]
- IC50 (wildtype Kras / hSOS1; [2]): > 500 nM
- IC50 [1, 2]: > 500 nM

Compound: Nc1nc2c(-c3c(Cl)cc4c(N5CC6COCC(C5)N6)nc(OC[C@@]56CCCN5C[C@H](F)C6)nc4c3F)ccc(F)c2s1 [Compound 547, 4-(4-(3-oxa-7,9-diaza-bicyclo[3.3.1]nonan-7-yl)-6-chloro-8-fluoro-2-(((2R,7aS)-2-fluorotetra-hydro-1H-pyrrolizin-7a(5H)-yl)methoxy)quinazolin-7-yl)-7-fluorobenzo[d]thiazol-2-amine]
- IC50 (wildtype Kras / hSOS1; compound nos. 401-703): > 500 nM
- IC50 ([1]; compound nos. 401-703): < 500 nM

Compound: Cc1ccc2cnn(C)c2c1-c1ccc2c(N3CC4CCC(C3)N4)nc(OC[C@@]34CCCN3C[C@H](F)C4)nc2c1F [Compound 478, 4-(3,8-diazabicyclo-[3.2.1]octan-3-yl)-7-(1,6-dimethyl-1H-indazol-7-yl)-8-fluoro-2-(((2R,7aS)-2-fluorotetrahydro-1H-pyrrolizin-7a(5H)-yl)meth-oxy)quinazoline]
- IC50 (wildtype Kras / hSOS1; compound nos. 401-703): < 500 nM
- IC50 ([1]; compound nos. 401-703): > 500 nM

Compound: Nc1cc(-c2c(Cl)cc3c(N4CC5CCC(C4)N5)nc(OCC45CCCN4CCC5)nc3c2F)c2ccccc2c1 [Compound 564, 4-(4-(3,8-diazabicyclo-[3.2.1]octan-3-yl)-6-chloro-8-fluoro-2-((tetrahydro-1H-pyrrolizin-7a(5H)-yl)meth-oxy)quinazolin-7-yl)naph-thalen-2-amine]
- IC50 (wildtype Kras / hSOS1; compound nos. 401-703): > 500 nM
- IC50 ([1]; compound nos. 401-703): > 500 nM

Compound: CN(C)CC1(COc2nc(N3CC4CCC(C3)N4)c3cc(Cl)c(-c4cccc5oc(N)nc45)c(F)c3n2)CC1 [Compound 692, 4-(4-(3,8-diazabicyclo-[3.2.1]-octan-3-yl)-6-chloro-2-((1-((dimethylamino)-methyl)cyclopropyl)meth-oxy)-8-fluoroquinazolin-7-yl)benzo[d]oxazol-2-amine]
- IC50 (wildtype Kras / hSOS1; compound nos. 401-703): > 500 nM
- IC50 ([1]; compound nos. 401-703): < 500 nM

Compound: Fc1c(-c2cccc3sccc23)c(Cl)cc2c(N3CC4CCC(C3)N4)nc(OC[C@@]34CCCN3C[C@H](F)C4)nc12 [Compound 579, 7-(benzo[b]thiophen-4-yl)-4-(3,8-diazabicyclo[3.2.1]-octan-3-yl)-6-chloro-8-fluoro-2-(((2R,7aS)-2-fluorotetrahydro-1H-pyrrol-izin-7a(5H)-yl)methoxy)-quinazoline]
- IC50 (wildtype Kras / hSOS1; compound nos. 401-703): > 500 nM
- IC50 ([1]; compound nos. 401-703): > 500 nM

Compound: CN1CCC[C@H]1COc1nc(N2[C@@H]3CC[C@H]2CNC3)c2cc(Cl)c(-c3cccc4sc(N)nc34)c(F)c2n1 [Compound 306, 4-(4-((1R,5S)-3,8-diaza-bicyclo[3.2.1]octan-8-yl)-6-chloro-8-fluoro-2-(((S)-1-methylpyrrolidin-2-yl)meth-oxy)quinazolin-7-yl)benzo-[d]thiazol-2-amine]
- IC50 (wildtype Kras / hSOS1; compound nos. 301-306): < 1500 nM
- IC50 ([1]; compound nos. 301-306): < 1500 nM

Compound: N#Cc1ccc2ccccc2c1-c1ccc2c(N3CC4CCC(C3)N4)nc(OC[C@@]34CCCN3C[C@H](F)C4)nc2c1F [Compound 691, 1-(4-(3,8-diazabicyclo-[3.2.1]octan-3-yl)-8-fluoro-2-(((2R,7aS)-2-fluorotetra-hydro-1H-pyrrolizin-7a(5H)-yl)methoxy)quinazolin-7-yl)-2-naphthonitrile]
- IC50 (wildtype Kras / hSOS1; compound nos. 401-703): > 500 nM
- IC50 ([1]; compound nos. 401-703): > 500 nM

Compound: CN1[C@@H]2CC[C@H]1CN(c1nc(OC[C@@]34CCCN3C[C@H](F)C4)nc3c(F)c(-c4ccc(F)c5sc(N)nc45)c(Cl)cc13)C2 [Compound 470, 4-(6-chloro-8-fluoro-2-(((2R,7aS)-2-fluorotetrahydro-1H-pyrrolizin-7a(5H)-yl)methoxy)-4-((1R,5S)-8-methyl-3,8-diazabicyclo[3.2.1]octan-3-yl)quinazolin-7-yl)-7-fluorobenzo[d]thiazol-2-amine]
- IC50 (wildtype Kras / hSOS1; compound nos. 401-703): < 500 nM
- IC50 ([1]; compound nos. 401-703): < 500 nM

Compound: CN1CCC[C@H]1COc1nc(N2CCNCC(F)(F)C2)c2cc(Cl)c(-c3cccc4nc(N)n(C)c34)c(F)c2n1 [Compound 186, 7-(6-chloro-4-(6,6-difluoro-1,4-diazepan-1-yl)-8-fluoro-2-(((S)-1-methylpyrrolidin-2-yl)methoxy)quinazolin-7-yl)-1-methyl-1H-benzo[d]-imidazol-2-amine]
- IC50 (wildtype Kras / hSOS1; [2]): > 500 nM
- IC50 [1, 2]: > 500 nM

Compound: N#Cc1c(N)sc2c(F)ccc(-c3c(Cl)cc4c(N5CC6CCC(C5)O6)nc(OC[C@@]56CCCN5C[C@H](F)C6)nc4c3F)c12 [Compound 583, 4-(4-(8-oxa-3-azabicyclo-[3.2.1]-octan-3-yl)-6-chloro-8-fluoro-2-(((2R,7aS)-2-fluorotetrahydro-1H-pyrrol-izin-7a(5H)-yl)methoxy)-quinazolin-7-yl)-2-amino-7-fluorobenzo[b]thiophene-3-carbonitrile]
- IC50 (wildtype Kras / hSOS1; compound nos. 401-703): > 500 nM
- IC50 ([1]; compound nos. 401-703): < 500 nM

Compound: CN(C)CC1(COc2nc(N3C[C@H]4CC[C@@H](C3)N4)c3cc(Cl)c(-c4ccc(F)c5sc(N)nc45)c(F)c3n2)CC1 [Compound 210]
- IC50 (wildtype Kras / hSOS1; [3]): < 1500 nM
- IC50 [1, 3]: < 1500 nM

Compound: Nc1nc2c(-c3c(Cl)cc4c(N5CCNCC(F)(F)C5)nc(OCc5ccccn5)nc4c3F)cccc2s1 [Compound 139, 4-(6-chloro-4-(6,6-difluoro-1,4-diazepan-1-yl)-8-fluoro-2-(pyridin-2-ylmethoxy)-quinazolin-7-yl)benzo[d]-thiazol-2-amine]
- IC50 (wildtype Kras / hSOS1; [2]): > 500 nM
- IC50 [1, 2]: > 500 nM

Compound: CN1C[C@H](F)C[C@H]1COc1nc(N2CCNCC(F)(F)C2)c2cc(Cl)c(-c3cccc4sc(N)nc34)c(F)c2n1 [Compound 146, 4-(6-chloro-4-(6,6-difluoro-1,4-diazepan-1-yl)-8-fluoro-2-(((2S,4R)-4-fluoro-1-methylpyrrolidin-2-yl)meth-oxy)quinazolin-7-yl)benzo-[d]thiazol-2-amine]
- IC50 (wildtype Kras / hSOS1; [2]): < 500 nM
- IC50 [1, 2]: < 500 nM

Compound: Nc1cc(-c2c(Cl)cc3c(N4CC5CCC(C4)N5)nc(OCC45CCCN4CCC5)nc3c2F)c2ccccc2n1 [Compound 636, 4-(4-(3,8-diazabicyclo-[3.2.1]octan-3-yl)-6-chloro-8-fluoro-2-((tetrahydro-1H-pyrrolizin-7a(5H)-yl)meth-oxy)quinazolin-7-yl)quin-olin-2-amine]
- IC50 (wildtype Kras / hSOS1; compound nos. 401-703): > 500 nM
- IC50 ([1]; compound nos. 401-703): > 500 nM
